Data from patent US5863944A, “Compounds and compositions for delivering active agents” (Emisphere Technologies, Inc., priority 1997, dated 1999).
Values after ≈ are worked out from the molar mass of the structure shown. Each block holds one compound with its values, some of them ahead of it.

Assay: Carrier properties: solubility
Type: physicochemical
Conditions: for Solubility (appearance): 200 mg/mL

- Solubility (appearance) (pH = 8.44): milky suspension
- solubility (pH 8.44): 200 mg/mL (≈ 632 mM)
SMILES: Nc1ccc(F)cc1C(=O)Nc1ccc(CCCC(=O)O)cc1 [Compound 2, 4-(N-(2-amino-5-fluorobenzoyl)-4-aminophenyl)butyric]

- Solubility (appearance) (pH = 8.28): soluble
- solubility (soluble at pH = 8.28): 200 mg/mL (≈ 637 mM)
SMILES: O=C(O)CCCCCCCC(=O)Nc1cc(Cl)ccc1O [Compound 3, 8-(2-hydroxy-5-chloroanilinocarbonyl)octanoic acid]

- Solubility (appearance) (pH = 8.7): slightly milky
- solubility (pH 8.7): 200 mg/mL (≈ 675 mM)
SMILES: Nc1ccc(F)cc1C(=O)NCCCCCCCC(=O)O [Compound 1, N-(2-Amino-5-fluorobenzoyl)-8-aminocaprylic Acid]
